Source: patent US20210348164A1, “ENDOGENOUS CYTOPLASMIC ALU COMPLEMENTARY DNA IN AGE-RELATED MACULAR DEGENERATION” (University of Virginia Patent Foundation, priority 2018, published 2021)

System: Alu cDNA in ARPE-19 cells
Experiment: Alu cDNA in ARPE-19 cells (Alu c-PCR, in situ hybridization)
Assay type: cell-based, human
Details: heat shock or DICER1 AS, in situ hybridization
Experimental: Cell culture and transfection. Primary mouse and human RPE cells were isolated as previously described (Kerur et al., 2018). All cells were maintained at 37° C. in a 5% CO2 environment. Mouse RPE cells were cultured in DMEM supplemented with 20% FBS and penicillin/streptomycin antibiotics at standard concentrations; primary human RPE cells were maintained in DMEM supplemented with 10% FBS and antibiotics. The human RPE cell line ARPE19 was cultured as previously described (Kerur et al., 2018) and maintained in DMEM-F12 containing penicillin/streptomycin, Fungizone, and gentamicin. HEK293T cells were cultured in DMEM with 10% fetal bovine serum (FBS) with 100 U/ml penicillin/streptomycin and 2 mM L-glutamine. […]
In situ hybridization. […] Visualization of fluorescein-labelled probe was performed with the TSA™ plus fluorescence system or the TSA™ plus Cy5 system (PerkinElmer). The fluorescent or Cy5 signals were detected using a Leica SP-5 or MR Nikon confocal microscope system. […]

## L1 siRNA: siRNA targeting L1; cholesterol-conjugated mouse L1 siRNA (SEQ ID NOs: 48 and 49) in vivo, human L1 siRNA sequences in human cells (chain 1 ACUAUUACUCUGAUACCTT; chain 2 UGUACUAAGGUCAAAUCTT; cholesterol conjugated, position not given here)
  Alu cDNA induction: reduced Alu cDNA formation
